For one assay, the system named is Cyclooxygenase. As to the kind of experiment: ARBC whole cell cyclooxygenase assay (PGF2α formation in RBL-1 cells). The format is cell-based, rat. Conditions: A23187 (5 μM) stimulated, PGF2α formation by RIA. The method, then:
(§1) A description of each procedure follows. ARBL/ARBC Whole Cell 5-Lipoxygenase and Cyclooxygenase Assays The rat basophilic leukemia cell line (RBL-1) was obtained from the American Type Culture Collection (Rockville, Md.). Radioimmunoassay (RIA) kits of LTB4 and PGF2α were obtained from Amersham (Arlington Heights, Ill.) and Seragen (Boston, Mass.), respectively. All tissue culture media were obtained from GIBCO (Grand Island, N.Y.). RBL-1 cells are grown in suspension culture in Eagle's minimum essential medium supplemented with 12% fetal bovine serum at 37° C. in an incubator supplied with air-5% carbon dioxide. Cells are harvested by centrifugation. They are washed with cold phosphate buffered saline pH 7.4 (PBS; NaCl, 7.1 g; NaHPO, 1.15 g; KHPO, 0.2 g; and KCl, 0.2 g/l). Cells are finally suspended in PBS containing 1.0 mM calcium at a density of […] cells/ml. Cells are incubated with and without test agent (in DMSO) (1% DMSO is without effect on arachidonic acid metabolism) for ten minutes at room temperature. Calcium ionophore A23187 (5 μM) is added and cells are incubated for seven minutes at 37° C. The reaction is stopped by chilling the tubes on ice for ten minutes. Cells are separated by centrifugation and the supernatant is stored at […]. Aliquots (100 μL) are analyzed for LTB4 and PGF2α using radioimmunoassay kits as provided by the supplier. Biochemical data obtained from this whole cell assay may be shown as IC50 s which are calculated as the amount of test compound causing 50% inhibition of LTB4 or PGF2α formation. The following Table exemplifies the data for the present invention.

The target in another assay is T1, 5-Lipoxygenase (Rattus norvegicus, UniProt P12527).
T1 construct: host or cells: RBL-1 (rat basophilic leukemia)
T1 sequence (P12527 1-673): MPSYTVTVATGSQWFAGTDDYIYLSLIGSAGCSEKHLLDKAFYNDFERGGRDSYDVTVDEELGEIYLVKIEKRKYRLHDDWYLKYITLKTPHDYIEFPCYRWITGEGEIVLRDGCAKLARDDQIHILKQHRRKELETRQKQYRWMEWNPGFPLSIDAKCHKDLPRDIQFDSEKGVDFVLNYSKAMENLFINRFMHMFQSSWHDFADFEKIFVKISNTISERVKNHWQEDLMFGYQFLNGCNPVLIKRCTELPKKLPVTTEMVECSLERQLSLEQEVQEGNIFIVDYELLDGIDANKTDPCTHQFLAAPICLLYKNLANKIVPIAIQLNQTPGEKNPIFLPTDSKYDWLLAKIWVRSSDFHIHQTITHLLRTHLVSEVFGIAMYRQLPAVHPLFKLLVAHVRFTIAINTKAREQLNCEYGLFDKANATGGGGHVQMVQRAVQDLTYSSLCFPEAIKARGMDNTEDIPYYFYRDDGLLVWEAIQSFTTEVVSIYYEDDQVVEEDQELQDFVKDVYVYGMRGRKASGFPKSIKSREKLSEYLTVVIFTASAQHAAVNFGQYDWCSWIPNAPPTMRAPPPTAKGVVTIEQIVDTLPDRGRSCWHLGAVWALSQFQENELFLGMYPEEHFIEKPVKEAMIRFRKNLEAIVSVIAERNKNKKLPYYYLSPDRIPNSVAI
The experiment in a line: ARBL whole cell 5-lipoxygenase assay (LTB4 formation in RBL-1 cells). Conditions: A23187 (5 μM) stimulated, LTB4 formation by RIA, read-out: % Inhibition at 10 μM Conc, ARBL. The format is cell-based. The method, then: as §1

Regarding `CC(C)(C)c1nc(C=C2SC(=S)NC2=O)nc(C(C)(C)C)c1O` [Example 6, 5-[[4,6-Bis-(1,1-dimethylethyl)-5-hydroxy-2-pyrimidinyl]methylene]-2-thioxo-4-thiazolidinone], the “% Inhibition at 10 μM Conc, ARBC” value in the assay with Cyclooxygenase was determined as 81%. In addition, on 5-Lipoxygenase, the inhibition at 10 µM was 91%.

For the compound `CC(C)(C)c1nc(C=C2SC(=N)NC2=O)nc(C(C)(C)C)c1O` [Example 7, 5-[[4,6-Bis-(1,1-dimethylethyl]-5-hydroxy-2-pyrimidinyl]methylene]-2-imino-4-thiazolidinone], the “% Inhibition at 10 μM Conc, ARBC” value in the assay with Cyclooxygenase turned out to be 56%. Further, the inhibition at 10 µM on 5-Lipoxygenase came to 32%.

For `CC(C)(C)c1nc(C=C2SC(=O)NC2=O)nc(C(C)(C)C)c1O` [Example 8], in the assay with Cyclooxygenase, the “% Inhibition at 10 μM Conc, ARBC” value was 68%. Besides, the inhibition at 10 µM on 5-Lipoxygenase is 60%.

Take `CON1CCC(=Cc2nc(C(C)(C)C)c(O)c(C(C)(C)C)n2)C1=O` [Example 15, 3-[[4,6-Bis-(1,1-dimethylethyl)-5-hydroxy-2-pyrimidinyl]methylene]-N-methoxy-pyrrolidin-2-one]: the “% Inhibition at 10 μM Conc, ARBC” value with Cyclooxygenase was found to be 88%. Also, the inhibition at 10 µM at 5-Lipoxygenase came out at 46%.

On to `CC(C)(C)c1nc(C=C2CCOC2=O)nc(C(C)(C)C)c1O` [Example 16], for which the “% Inhibition at 10 μM Conc, ARBC” value with Cyclooxygenase was 93%. Further, at 5-Lipoxygenase, the inhibition at 10 µM amounted to 100%.

By % Inhibition is commonly meant how much of the control response was suppressed. Read a low % Inhibition as little suppression. For orientation: inhibition means the share of the control response that was lost under treatment.
